Reference: ChEMBL document CHEMBL1201862, “PubChem BioAssay data set” (2004)
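Grown in 96-well plates, cells were treated for 48 hours with each compound at five concentrations. Insufficient inhibition: endpoint recorded as highest concentration tested. Abbreviation: GI50, concentration required for 50% inhibition of growth.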 Activity calls are given as the source filed them. No stated cut-off is given here; in the data, active = GI50 up to about 1.1 µM and inactive = higher.

How the values were obtained:
Assay in all cases: inhibition of tumour cell growth, NCI panel, 48 h
[1] = tested on: 786-0
[2] = tested on: A498
[3] = tested on: A549
[4] = tested on: ACHN
[5] = tested on: BT-549
[6] = tested on: CAKI-1
[7] = tested on: CCRF-CEM
[8] = tested on: COLO 205
[9] = tested on: EKVX
[10] = tested on: HCC 2998
[11] = tested on: HCT-116
[12] = tested on: HCT-15
[13] = tested on: HL-60
[14] = tested on: HOP-62
[15] = tested on: HOP-92
[16] = tested on: HT-29
[17] = tested on: Hs-578T
[18] = tested on: IGROV-1
[19] = tested on: K562
[20] = tested on: KM12
[21] = tested on: LOX IMVI
[22] = tested on: M14
[23] = tested on: MCF7
[24] = tested on: MDA-MB-231
[25] = tested on: MDA-MB-435
[26] = tested on: MDA-N
[27] = tested on: MOLT-4
[28] = tested on: Malme-3M
[29] = tested on: NCI-H226
[30] = tested on: NCI-H23
[31] = tested on: NCI-H460
[32] = tested on: NCI-H522
[33] = tested on: NCI/ADR-RES
[34] = tested on: OVCAR-3
[35] = tested on: OVCAR-4
[36] = tested on: OVCAR-5
[37] = tested on: OVCAR-8
[38] = tested on: PC-3
[39] = tested on: RPMI-8226
[40] = tested on: RXF 393
[41] = tested on: SF-268
[42] = tested on: SF-295
[43] = tested on: SF-539
[44] = tested on: SK-MEL-28
[45] = tested on: SK-MEL-2
[46] = tested on: SK-MEL-5
[47] = tested on: SK-OV-3
[48] = tested on: SN12C
[49] = tested on: SNB-19
[50] = tested on: SNB-75
[51] = tested on: SR
[52] = tested on: SW-620
[53] = tested on: T47D
[54] = tested on: TK-10
[55] = tested on: U-251
[56] = tested on: UACC-257
[57] = tested on: UACC-62
[58] = tested on: UO-31
[59] = tested on: DU-145

O=c1cc(NCc2ccncc2)[nH]c(=O)[nH]1
GI50 [1]: > 100 µM (inactive) | GI50 [2]: > 100 µM (inactive) | GI50 [3]: > 100 µM (inactive) | GI50 [4]: > 100 µM (inactive) | GI50 [5]: > 100 µM (inactive) | GI50 [6]: > 100 µM (inactive) | GI50 [7]: > 100 µM (inactive) | GI50 [8]: > 100 µM (inactive) | GI50 [9]: > 100 µM (inactive) | GI50 [10]: > 100 µM (inactive) | GI50 [11]: > 100 µM (inactive) | GI50 [12]: > 100 µM | GI50 [13]: > 100 µM (inactive) | GI50 [14]: > 100 µM (inactive) | GI50 [15]: > 100 µM (inactive) | GI50 [16]: > 100 µM (inactive) | GI50 [17]: > 100 µM (inactive) | GI50 [18]: > 100 µM (inactive) | GI50 [19]: > 100 µM (inactive) | GI50 [20]: > 100 µM (inactive) | GI50 [21]: > 100 µM (inactive) | GI50 [22]: > 100 µM (inactive) | GI50 [23]: > 100 µM (inactive) | GI50 [24]: > 100 µM (inactive) | GI50 [25]: > 100 µM (inactive) | GI50 [26]: > 100 µM (inactive) | GI50 [27]: > 100 µM (inactive) | GI50 [28]: > 100 µM (inactive) | GI50 [29]: > 100 µM (inactive) | GI50 [30]: > 100 µM (inactive) | GI50 [31]: > 100 µM (inactive) | GI50 [32]: > 100 µM (inactive) | GI50 [33]: > 100 µM (inactive) | GI50 [34]: > 100 µM (inactive) | GI50 [35]: > 100 µM (inactive) | GI50 [36]: > 100 µM (inactive) | GI50 [37]: > 100 µM (inactive) | GI50 [38]: > 100 µM (inactive) | GI50 [39]: > 100 µM (inactive) | GI50 [40]: > 100 µM (inactive) | GI50 [41]: > 100 µM (inactive) | GI50 [42]: > 100 µM (inactive) | GI50 [43]: > 100 µM (inactive) | GI50 [44]: > 100 µM (inactive) | GI50 [45]: > 100 µM (inactive) | GI50 [46]: > 100 µM (inactive) | GI50 [47]: > 100 µM (inactive) | GI50 [48]: > 100 µM (inactive) | GI50 [49]: > 100 µM (inactive) | GI50 [50]: > 100 µM (inactive) | GI50 [51]: > 100 µM (inactive) | GI50 [52]: > 100 µM (inactive) | GI50 [53]: > 100 µM (inactive) | GI50 [54]: > 100 µM (inactive) | GI50 [55]: > 100 µM (inactive) | GI50 [56]: > 100 µM (inactive) | GI50 [57]: > 100 µM (inactive) | GI50 [58]: > 100 µM (inactive)

NNC(=S)N/N=C(\C(=O)Nc1cccc(O)c1)C1C(=O)NC(=S)NC1=O
GI50 [1]: > 100 µM (inactive) | GI50 [2]: > 100 µM (inactive) | GI50 [3]: > 100 µM (inactive) | GI50 [4]: > 100 µM (inactive) | GI50 [5]: > 100 µM (inactive) | GI50 [6]: > 100 µM (inactive) | GI50 [7]: > 100 µM (inactive) | GI50 [9]: > 100 µM (inactive) | GI50 [10]: > 100 µM (inactive) | GI50 [11]: > 100 µM (inactive) | GI50 [12]: > 100 µM | GI50 [13]: > 100 µM (inactive) | GI50 [14]: > 100 µM (inactive) | GI50 [15]: > 100 µM (inactive) | GI50 [16]: > 100 µM (inactive) | GI50 [17]: > 100 µM (inactive) | GI50 [18]: > 100 µM (inactive) | GI50 [19]: > 100 µM (inactive) | GI50 [20]: > 100 µM (inactive) | GI50 [21]: > 100 µM (inactive) | GI50 [22]: > 100 µM (inactive) | GI50 [23]: > 100 µM (inactive) | GI50 [24]: > 100 µM (inactive) | GI50 [25]: > 100 µM (inactive) | GI50 [27]: > 100 µM (inactive) | GI50 [28]: > 100 µM (inactive) | GI50 [29]: > 100 µM (inactive) | GI50 [31]: > 100 µM (inactive) | GI50 [32]: > 100 µM (inactive) | GI50 [33]: > 100 µM (inactive) | GI50 [34]: > 100 µM (inactive) | GI50 [35]: 36.3 µM (inactive) | GI50 [36]: > 100 µM (inactive) | GI50 [37]: > 100 µM (inactive) | GI50 [38]: > 100 µM (inactive) | GI50 [39]: > 100 µM (inactive) | GI50 [40]: > 100 µM (inactive) | GI50 [41]: > 100 µM (inactive) | GI50 [42]: > 100 µM (inactive) | GI50 [43]: > 100 µM (inactive) | GI50 [44]: > 100 µM (inactive) | GI50 [45]: > 100 µM (inactive) | GI50 [46]: > 100 µM (inactive) | GI50 [47]: > 100 µM (inactive) | GI50 [48]: > 100 µM (inactive) | GI50 [49]: > 100 µM (inactive) | GI50 [50]: > 100 µM (inactive) | GI50 [51]: > 100 µM (inactive) | GI50 [52]: > 100 µM (inactive) | GI50 [53]: > 100 µM (inactive) | GI50 [54]: > 100 µM (inactive) | GI50 [55]: > 100 µM (inactive) | GI50 [56]: > 100 µM (inactive) | GI50 [57]: > 100 µM (inactive) | GI50 [58]: > 100 µM (inactive)

COc1ccc(NC2Oc3cc4c(cc3C(c3cc(OC)c(O)c(OC)c3)C2C)OCO4)cc1 (stereo not given)
GI50 [1]: 3.72 µM (inactive) | GI50 [2]: 6.79 µM (inactive) | GI50 [3]: 3.56 µM (inactive) | GI50 [4]: 4.01 µM (inactive) | GI50 [5]: 10.4 µM (inactive) | GI50 [6]: 10.4 µM (inactive) | GI50 [8]: 8.87 µM (inactive) | GI50 [59]: 7.4 µM (inactive) | GI50 [10]: 5.22 µM (inactive) | GI50 [11]: 4.43 µM (inactive) | GI50 [12]: 1.79 µM | GI50 [13]: 1.79 µM (inactive) | GI50 [15]: 23.8 µM (inactive) | GI50 [16]: 3.82 µM (inactive) | GI50 [18]: 5.55 µM (inactive) | GI50 [19]: 2.69 µM (inactive) | GI50 [20]: 4.78 µM (inactive) | GI50 [22]: 5.36 µM (inactive) | GI50 [23]: 5.71 µM (inactive) | GI50 [24]: 2.65 µM (inactive) | GI50 [25]: 0.406 µM (active) | GI50 [26]: 1.36 µM (inactive) | GI50 [28]: 5.38 µM (inactive) | GI50 [29]: 38.3 µM (inactive) | GI50 [30]: 11.2 µM (inactive) | GI50 [31]: 3.83 µM (inactive) | GI50 [32]: 3.33 µM (inactive) | GI50 [33]: 5.66 µM (inactive) | GI50 [34]: 5.21 µM (inactive) | GI50 [35]: 48.2 µM (inactive) | GI50 [36]: 7.66 µM (inactive) | GI50 [37]: 4.45 µM (inactive) | GI50 [38]: 4.13 µM (inactive) | GI50 [39]: 3.15 µM (inactive) | GI50 [40]: 7.73 µM (inactive) | GI50 [41]: 14.7 µM (inactive) | GI50 [42]: 4.78 µM (inactive) | GI50 [43]: 4.2 µM (inactive) | GI50 [44]: 3.73 µM (inactive) | GI50 [45]: 2.25 µM (inactive) | GI50 [46]: 1.96 µM (inactive) | GI50 [48]: 2.76 µM (inactive) | GI50 [49]: 21.4 µM (inactive) | GI50 [50]: 2.11 µM (inactive) | GI50 [51]: 0.202 µM (active) | GI50 [52]: 3.5 µM (inactive) | GI50 [53]: 9.06 µM (inactive) | GI50 [54]: 2.23 µM (inactive) | GI50 [55]: 4.65 µM (inactive) | GI50 [56]: 15.1 µM (inactive) | GI50 [57]: 2.74 µM (inactive) | GI50 [58]: 5.97 µM (inactive)
